Values quoted from earlier work in patent US8871800B2, “Statin and omega-3 fatty acids for reduction of Apo-B levels” (GlaxoSmithKline, LLC, priority 2006, dated 2014).

What was measured:
[1] = system: obese, insulin-resistant men with dyslipidemia; conditions: atorvastatin monotherapy 40 mg/day, 6 weeks
[2] = system: patients with hyperlipemia; conditions: atorvastatin monotherapy 10 mg/day, 5 weeks; compared to baseline
[3] = system: patients with hypercholesterolemia; conditions: lovastatin monotherapy 40 mg/day, 6 weeks
[4] = system: patients with familial hypercholesterolemia; conditions: monotherapy (6 g/day Omacor or 40 mg/day lovastatin), 6 weeks

In the case of `CC(C)c1c(C(=O)Nc2ccccc2)c(-c2ccccc2)c(-c2ccc(F)cc2)n1CC[C@@H](O)C[C@@H](O)CC(=O)O` [atorvastatin], the Apo-B levels [1] is listed as “significantly decreased”, the Apo-B levels [2] is listed as “significantly decreased” and the HDL-C levels [2] is listed as “significantly increased”. For the same compound, the LDL-C levels [2] was “significantly decreased” and the triglyceride levels [2] was “significantly decreased”.
In the case of `CC[C@H](C)C(=O)O[C@H]1C[C@@H](C)C=C2C=C[C@H](C)[C@H](CC[C@@H]3C[C@@H](O)CC(=O)O3)[C@H]21` [lovastatin], the Apo-B levels [3] is given as “significantly reduced”, the HDL-C levels [3] is given as “significant increases” and the LDL-C levels [3] is given as “significant decreases”. For the same compound, the triglyceride levels [3] was “significant decreases” and the Apo-B levels [4] was “significantly reduced”.
